The experiment has as its target TNAP (Homo sapiens (Human), UniProt P05186). The experiment is described as follows: TNAP (PPi) inhibition assay, pyrophosphate as substrate. The format is biochemical. The procedure, abridged:
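Enzyme source was conditioned serum-free medium from COS-1 cells transiently expressing tagged human TNAP, dialyzed against TBS with MgCl2/ZnCl2. Activity on natural substrate PPi at pH 7.4 read as liberated phosphate (Biomol Green).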

Molecules are shown by their SMILES.

Compound `O=S(=O)(Nc1cncc(-c2ncccn2)c1)c1cc(Br)ccc1OC(F)(F)F` [Example XI-24, 5-Bromo-N-(5-(pyrimidin-2-yl)pyridin-3-yl)-2-(trifluoromethoxy)benzenesulfonamide] returned an IC50 of 100 to 1000 nM.

`O=S(=O)(Nc1cncc(-c2cncs2)c1)c1cc(Cl)ccc1OC(F)(F)F` [Example XI-25, 5-Chloro-N-(5-(thiazol-5-yl)pyridin-3-yl)-2-(trifluoromethoxy)benzenesulfonamide] showed an IC50 of 100 to 1000 nM.

`O=S(=O)(Nc1cncc(-c2cncs2)c1)c1cc(Br)ccc1OC(F)(F)F` [Example XI-26, 5-bromo-N-(5-(thiazol-5-yl)pyridin-3-yl)-2-(trifluoromethoxy)benzenesulfonamide] displayed an IC50 of less than 100 nM.

In turn, `COc1ccc(OC(F)(F)F)cc1S(=O)(=O)Nc1cncc(-c2cncs2)c1` [Example XI-27, 2-Methoxy-N-(5-(thiazol-5-yl)pyridin-3-yl)-5-(trifluoromethoxy)benzenesulfonamide] displayed a half-maximal inhibitory concentration (IC50) of 100 to 1000 nM.

The compound `O=S(=O)(Nc1cncc(-c2cscn2)c1)c1cc(Cl)ccc1OC(F)(F)F` [Example XI-28, 5-Chloro-N-(5-(thiazol-4-yl)pyridin-3-yl)-2-(trifluoromethoxy)benzenesulfonamide] showed an IC50 of less than 100 nM.

As to `O=S(=O)(Nc1cncc(-c2cscn2)c1)c1cc(Br)ccc1OC(F)(F)F` [Example XI-29, 5-Bromo-N-(5-(thiazol-4-yl)pyridin-3-yl)-2-(trifluoromethoxy)benzenesulfonamide], the IC50 is less than 100 nM.

`COc1ccc(OC(F)(F)F)cc1S(=O)(=O)Nc1cncc(-c2cscn2)c1` [Example XI-30, 2-Methoxy-N-(5-(thiazol-4-yl)pyridin-3-yl)-5-(trifluoromethoxy)benzenesulfonamide] came in with an IC50 of less than 100 nM.

For the compound `Cn1cc(-c2cncc(NS(=O)(=O)c3cc(Br)ccc3OC(F)(F)F)c2)cn1` [Example XI-31, 5-Bromo-N-(5-(1-methyl-1H-pyrazol-4-yl)pyridin-3-yl)-2-(trifluoromethoxy)benzenesulfonamide], the IC50 is less than 100 nM.

In the case of `COc1ccc(OC(F)(F)F)cc1S(=O)(=O)Nc1cncc(-c2cnn(C)c2)c1` [Example XI-32, 2-Methoxy-N-(5-(1-methyl-1H-pyrazol-4-yl)pyridin-3-yl)-5-(trifluoromethoxy)benzenesulfonamide], the IC50 is less than 100 nM.

Consider `COC(=O)c1cncc(NS(=O)(=O)c2cc(Cl)ccc2OC(F)(F)F)c1` [Example XII-1, Methyl 5-(5-chloro-2-(trifluoromethoxy)phenylsulfonamido)nicotinate], for which the IC50 is 100 to 1000 nM.

With `O=C(OC1CCCCC1)c1cncc(NS(=O)(=O)c2cc(Cl)ccc2OC(F)(F)F)c1` [Example XII-3, Cyclohexyl 5-(5-chloro-2-(trifluoromethoxy)phenylsulfonamido)nicotinate], the IC50 is less than 100 nM.

In turn, `O=C(Oc1ccccc1)c1cncc(NS(=O)(=O)c2cc(Cl)ccc2OC(F)(F)F)c1` [Example XII-4, Phenyl 5-(5-chloro-2-(trifluoromethoxy)phenylsulfonamido)nicotinate] had an IC50 of less than 100 nM.

As to `CNC(=O)c1cncc(NS(=O)(=O)c2cc(Cl)ccc2OC(F)(F)F)c1` [Example XII-6, 5-(5-Chloro-2-(trifluoromethoxy)phenylsulfonamido)-N-methylnicotinamide], the IC50 is 100 to 1000 nM.

`CCCNC(=O)c1cncc(NS(=O)(=O)c2cc(Cl)ccc2OC(F)(F)F)c1` [Example XII-7, 5-(5-Chloro-2-(trifluoromethoxy)phenylsulfonamido)-N-propylnicotinamide] registered an IC50 of more than 1000 nM.

`O=C(NC1CCCCC1)c1cncc(NS(=O)(=O)c2cc(Cl)ccc2OC(F)(F)F)c1` [Example XII-8, 5-(5-Chloro-2-(trifluoromethoxy)phenylsulfonamido)-N-cyclohexylnicotinamide] came in with an IC50 of 100 to 1000 nM.

On to `COC(=O)c1cncc(NS(=O)(=O)c2cc(Br)ccc2OC(F)(F)F)c1` [Example XII-9, Methyl 5-(5-bromo-2-(trifluoromethoxy)phenylsulfonamido)nicotinate], for which the IC50 lay within 100 to 1000 nM.

Broadly, the IC50 is the concentration that gives 50% inhibition.
